{"source": "patent US20150352081A1", "about": "“USE OF PIDOTIMOD TO TREAT ATOPIC DERMATITIS” (POLICHEM S.A., priority 2012, published 2015)", "key": {"[1]": {"system": "patients affected by atopic dermatitis", "experiment": "Safety/tolerability of the treatment in patients with atopic dermatitis", "format": "in vivo, human", "details": "5 patients, two applications daily, 12 weeks", "procedure": "(§1) An evaluation of the activity of pidotimod was tested on patients affected by atopic dermatitis, in order to assess the efficacy in terms of improvement of the pathology by means of erythema evaluation. The safety of the treatment was also evaluated. The study was performed in 5 patients (4 females and 1 male, aged between 22-35 years, mean=29) with a clinical diagnosis of atopic dermatitis having as inclusion criteria the affection of the anterior flexural crease of the elbow or of the knee.\n(§2) The study product was taken with the composition of the Example 1 at a dosage of two applications daily on the affected skin.\n(§3) During the trial, the following visits were performed: • baseline—T0 (before the product use) • intermediate visit—T6 (after 6 weeks of treatment) • final visit—T12 (after 12 weeks of treatment)"}, "[2]": {"system": "patients affected by atopic dermatitis", "experiment": "Erythema score in patients with atopic dermatitis treated topically with pidotimod cream", "format": "in vivo, human", "design": "Effect on erythema score: dose or concentration left out as unconfirmed", "procedure": "as §1, §2, §3\nThe efficacy of the product was expressed by mean of a 5 points erythema score, assessing the score at the baseline, at the intermediate visit and the final one."}}, "note": "Square brackets hold non-standard residues; d marks the D form. Peptide text beside a SMILES is read from it. pGlu = O=C1CC[C@@H](C(=O)O)N1; Thz = O=C(O)[C@@H]1CSCN1", "data": [{"smiles": "O=C1CC[C@@H](C(=O)N2CSC[C@H]2C(=O)O)N1", "note": "[pidotimod, (4R)-3-(5-oxo-L-prolyl)-1,3-thiazolidine-4-carboxylic acid] ([pGlu]-[Thz]-OH)", "values": [{"measurement": "Side effects", "setting": "[1]", "result": "no side effects were reported"}, {"measurement": "Tolerability of the treatment", "setting": "[1]", "result": "very well tolerated"}, {"measurement": "Student t test p of the erythema score change", "setting": "[2]; T12 (12 weeks) vs. T0 (baseline)", "result": "< 0.05"}, {"measurement": "Effect on erythema score", "setting": "[2]; pidotimod cream, two applications daily, 12 weeks, compared to the baseline", "result": "able to improve the erythema score"}]}]}
